Experimental data as given in patent US20090275632A1, “Methods of diagnosis and treatment” (OncoMethylome Sciences SA, priority 2006, published 2009).

Tests used:
[1] = system: miR-124a; test: Expression analyses of miR-124a by RT-PCR in MCF-7 breast cancer cell line; conditions: MCF-7 cells (miR-124a methylated)
[2] = system: miR-124a CpG island; test: Chromatin immunoprecipitation assay for histone modification marks and methyl-CpG binding domain proteins; assay type: cell-based, human; conditions: HCT-116 cells, 5-aza-2-deoxycytidine (1 µM) for 72 h
Procedure: Standard ChIP assays were performed as previously described (3). In brief, cells were treated with 1% formaldehyde for 15 min. Then, chromatin was sheared with a Bioruptor™ (Diagenode) to an average length of 0.4-0.8 kb for this analysis. The following antibodies were used: anti-MeCP2 (ab3752), anti-MBD2 (ab3754), and anti-trimethyl-K4 histone H3 (ab8580) (ab1220) (Abcam) and anti-acetyl H3 (06-599) and anti-acetyl H4 (06-598) (Upstate biotechnologies). PCR amplification was performed in 20 μl with specific primers for each of the analyzed promoters.
for miR-124a1 5′-CM AGA GCC TTT GGA AGA CG-3′ (sense) (SEQ ID NO: 40) and 5′-GGAAGAGGGGTGGGTAGAAG-3′ (antisense) (SEQ ID NO: 41), for miR-124a2 5′-GCGTGGTCCTTAAAAACCTG-3′ (sense) (SEQ ID NO: 42) and 5′-CCATGCCATTTACAGCACAC-3′ (antisense) (SEQ ID NO: 43); and for miR-124a3 5′-GGA GM GTG TGG GCT CCT C-3′ (sense) (SEQ ID NO: 44) and 5′-AAT CM GGT CCG CTG TGA AC-3′ (antisense) (SEQ ID NO:45). For each promoter, the sensitivity of PCR amplification was evaluated on serial dilutions of total DNA collected after sonication (input fraction). PCR amplifications were carried out with a variable number of cycles at 94° C. for 30 s, 60° C. for 30 s and 72° C. for 30 s. The amplified DNA was separated on 2% agarose gel and visualized with ethidium bromide.

[3] = system: CDK6 mRNA; test: RT-PCR analyses of CDK6 mRNA in HCT-116 cells; assay type: cell-based, human; conditions: AZA 1 µM 72 h, miR-124a precursor 100 nM RNA duplexes, 48 h after transfection
[4] = system: miR-124a; test: Expression of mature miR-124a by quantitative RT-PCR in HCT-116 cells; assay type: cell-based, human; conditions: 5-aza-2-deoxycytidine (1 µM) for 72 h
Procedure: GAPDH was used as internal control. PCR products were analyzed in a 3% agarose gel. Realtime PCR analysis of miRNAs was performed as previously described (Biotechniques 39:519-525). In brief, total RNA was isolated from cell lines or tissues using Trizol reagent and the small RNA fraction was further isolated using the miRVANA kit (Ambion). 500 ng of the small RNA fraction was polyadenylated by poly(A) polymerase (PAP, Ambion) at 37° C. for 1 hr in a 6 uL reaction. After phenol-chloroform extraction and ethanol precipitation the polyadenylated small RNAs were reversed transcribed according to the manufacturer's protocols using 200U SuperScript-II Reverse Transcriptase (RT, Invitrogen) and 0.5 ug poly(T) adapter (GCG AGC ACA GM TTAATACGACTCACTATAGGTTTTTTTTTT TTV N) (SEQ ID NO:36). The small cDNAs were then treated with RNAse H at 37° C. for 1 hr and finally diluted 240 fold. Negative controls were included in both PAP and RT reactions. […] Finally, the melting temperature for each miRNA was experimentally determined from the thermal dissociation curves using ABI Prism 7900HT (Applied Biosystems, Foster City, Calif., USA). […]
Each set of PCR reactions included a dilution series of a reference cDNA to be used for quantification.

[5] = system: Rb; test: Western blot for phosphorylated Rb (P-Rb-S807/811) in HCT-116 cells; assay type: cell-based, human; conditions: AZA 1 µM 72 h, miR-124a precursor 100 nM RNA duplexes, 48 h after transfection
From the text: (§1) Analyses of CDK6 and phosphorylated Rb expression by Western blot, immunohistochemistry and RT-PCR. We collected cells by centrifugation and washed cell pellets twice with phosphate-buffered saline buffer. Total extracts were fractionated on a SDS-PAGE gel and transferred to a polyvinylidene difluoride membrane with […] (Immobilon PSQ, Millipore). The membranes were blocked in 5% milk PBS-T (phosphate-buffered saline with 0.1% Tween-20) and immunoprobed with antibodies against CDK6 (1:1000; Cell Signaling) and P-Rb-S807/811 (1:1000; Cell Signaling). An antibody to β-actin (1:5000; Sigma) was used as a loading control. Immunoreactive bands were visualized using a chemiluminescent substrate (Amersham) after incubation of the membrane with secondary antibodies conjugated to horseradish peroxidase.

[6] = system: miR-124a; test: Expression of precursor miR-124a by conventional RT-PCR in HCT-116 cells; assay type: cell-based, human; conditions: 5-aza-2-deoxycytidine (1 µM) for 72 h
Procedure: GAPDH was used as internal control. PCR products were analyzed in a 3% agarose gel. Realtime PCR analysis of miRNAs was performed as previously described (Biotechniques 39:519-525). In brief, total RNA was isolated from cell lines or tissues using Trizol reagent and the small RNA fraction was further isolated using the miRVANA kit (Ambion). 500 ng of the small RNA fraction was polyadenylated by poly(A) polymerase (PAP, Ambion) at 37° C. for 1 hr in a 6 uL reaction. After phenol-chloroform extraction and ethanol precipitation the polyadenylated small RNAs were reversed transcribed according to the manufacturer's protocols using 200U SuperScript-II Reverse Transcriptase (RT, Invitrogen) and 0.5 ug poly(T) adapter (GCG AGC ACA GM TTAATACGACTCACTATAGGTTTTTTTTTT TTV N) (SEQ ID NO:36). The small cDNAs were then treated with RNAse H at 37° C. for 1 hr and finally diluted 240 fold. Negative controls were included in both PAP and RT reactions. Moreover, two additional RT reactions were performed using half and double the input of polyadenylated small RNAs to ensure the linearity of the reverse transcription step. Finally, the melting temperature for each miRNA was experimentally determined from the thermal dissociation curves using ABI Prism 7900HT (Applied Biosystems, Foster City, Calif., USA). […]

[7] = system: CDK6; test: Western blot for CDK6 in HCT-116 cells; assay type: cell-based, human; conditions: AZA 1 µM 72 h, miR-124a precursor 100 nM RNA duplexes, 48 h after transfection
From the text: as §1

[8] = listed as DNA demethylating agent

- histone modification marks linked to transcriptional activity (acetylation of histones H3 and H4, trimethylation of lysine 4 of histone H3) in the miR-124a CpG island [2]: the opposite scenario is observed
- occupancy of the miR-124a CpG island by MBDs (MeCP2 and MBD2) [2]: the opposite scenario is observed
- occupancy of the miR-124a CpG island by MBDs (MeCP2 and MBD2) ([2]; listed as demethylating agent): release of binding by MBDs
SMILES: Nc1ncn([C@H]2C[C@H](O)[C@@H](CO)O2)c(=O)n1 [AZA, 5-aza-2′-deoxycytidine]
- miR-124a expression [1]: miR-124a upregulation
- histone modification marks linked to transcriptional activity (acetylation of histones H3 and H4, trimethylation of lysine 4 of histone H3) in the miR-124a CpG island ([2]; listed as demethylating agent): emergence of the histone marks of active transcription
- CDK6 mRNA expression level [3]: do not demonstrate any change
- CDK6 mRNA expression level ([3]; listed as demethylating agent): no difference
- mature miR-124a expression [4]: miR-124a upregulation
- mature miR-124a expression [4, 8]: restored
- phosphorylation of Rb in the residues 807 and 811 [5, 8]: hypophosphorylated
- phosphorylation of Rb in the residues 807 and 811 ([5]; listed as demethylating drug): reduced Rb phosphorylation
- precursor miR-124a expression [6]: miR-124a upregulation
- precursor miR-124a expression [6, 8]: restored
- CDK6 protein level [7]: reduction in CDK6 levels
- CDK6 protein level ([7]; listed as demethylating agent): CDK6 downregulation
